The source of these data is PubChem BioAssay AID328 (DTP/NCI, 2004).

The subject of assay [1] is BDF1 mice, P388 leukemia ip, median survival T/C. The assay is described as follows: NCI In Vivo Anticancer Drug Screen. Data for tumor model P388 Leukemia (intraperitoneal) in B6D2F1 (BDF1) mice. To be noted: endpoint: median survival time, higher = longer survival. The essentials:
(§1)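 Vehicle-dosed animals serve as the reference; survival of compound-dosed, tumour-implanted mice is divided by it.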

In assay [2] the test system is BDF1 mice, P388 leukemia ip. The assay is described as above. To be noted: endpoint: mean survival time, schedule: Q01DX010 (ip), vehicle: carboxymethylcellulose (CMC), higher = longer survival. The procedure, abridged: as §1

Where “and” joins values, the source holds several entries; their conditions need not be identical. Equal values may be shown once. Toxic doses and inconclusive results are not listed. Non-standard residues stand in square brackets, D forms with d. Residues, ends and D or L forms follow the SMILES beside them. ξ: configuration not given here. *: point of attachment. Cbz = O=C(OCc1ccccc1)*; Boc = CC(C)(C)OC(=O)*; ξK = NCCCCC(N)C(=O)O; OBn = c1ccc(CO*)cc1

As to `CC(C)(O)CCC(=O)C(C)(O)C1C(O)CC2(C)C3CC=C4C(CC(O)C(=O)C4(C)C)C3(C)C(=O)CC12C` (stereo unspecified), the T/C in assay [1] (dose: 1.0 mg/kg/injection, schedule: Q01DX010 (ip), vehicle: carboxymethylcellulose (CMC)) was 121 % of control; in assay [1] (dose: 2.0 mg/kg/injection, schedule: Q01DX010 (ip), vehicle: carboxymethylcellulose (CMC)), 121 % of control; in assay [1] (dose: 4.0 mg/kg/injection, schedule: Q01DX010 (ip), vehicle: carboxymethylcellulose (CMC)), 121 % of control; in assay [2] (dose: 1.0 mg/kg/injection), 97 % of control; in assay [2] (dose: 2.0 mg/kg/injection) it was 86 % of control.
`CC(C)=CC(=O)C1C(=O)c2ccccc2C1=O`: the T/C in assay [2] (dose: 25.0 mg/kg/injection) is 93 % of control; in assay [2] (dose: 50.0 mg/kg/injection), 101 % of control; in assay [2] (dose: 100.0 mg/kg/injection), 101 % of control; in assay [2] (dose: 200.0 mg/kg/injection) it was 96 % of control.
On to `CC(C)(C)OC(=O)NCC(=O)NC(CCCCNC(=O)OCc1ccccc1)C(=O)OCc1ccccc1` (stereo not drawn) (Boc-Gly-[ξK](Cbz)-OBn), for which the T/C is 95 % of control in assay [1] (dose: 50.0 mg/kg/injection, schedule: Q01DX005 (ip), vehicle: saline with Tween-80); 90 % of control in assay [1] (dose: 100.0 mg/kg/injection, schedule: Q01DX005 (ip), vehicle: saline with Tween-80); 104 % of control in assay [1] (dose: 200.0 mg/kg/injection, schedule: Q01DX005 (ip), vehicle: saline with Tween-80).
`O=C(OC1CC2CCCC21)c1cc([N+](=O)[O-])cc([N+](=O)[O-])c1` (stereo unspecified): the T/C was 94 % of control in assay [1] (dose: 100.0 mg/kg/injection, schedule: Q01DX001 (ip), vehicle: saline with Tween-80); 97 % of control in assay [1] (dose: 200.0 mg/kg/injection, schedule: Q01DX001 (ip), vehicle: saline with Tween-80); 99 % of control in assay [1] (dose: 400.0 mg/kg/injection, schedule: Q01DX001 (ip), vehicle: saline with Tween-80).
As to `Cc1ccc(NS(=O)(=O)c2ccc(Br)cc2)c(C)c1`, the T/C in assay [1] (dose: 100.0 mg/kg/injection, schedule: Q04DX003 (ip), vehicle: saline with Tween-80) is 100 % of control; in assay [1] (dose: 200.0 mg/kg/injection, schedule: Q04DX003 (ip), vehicle: saline with Tween-80) it was 100 % of control; in assay [1] (dose: 400.0 mg/kg/injection, schedule: Q04DX003 (ip), vehicle: saline with Tween-80), 104 % of control.
As to `CC1C2CCCC1(OC(=O)c1cc([N+](=O)[O-])cc([N+](=O)[O-])c1)C2` (stereo unspecified), the T/C was 101 % of control in assay [1] (dose: 100.0 mg/kg/injection, schedule: Q04DX002 (ip), vehicle: saline with Tween-80); 94 % of control in assay [1] (dose: 200.0 mg/kg/injection, schedule: Q04DX002 (ip), vehicle: saline with Tween-80); 95 % of control in assay [1] (dose: 400.0 mg/kg/injection, schedule: Q04DX002 (ip), vehicle: saline with Tween-80).
With `CC12CCC3C(CCC4=CC(=O)CCC43C)C1CCC(=O)O2` (stereo unspecified), the T/C in assay [1] (dose: 12.5 mg/kg/injection, schedule: Q01DX009 (ip), vehicle: Klucel (hydroxypropylcellulose) (HPC)) is 95 % of control; in assay [1] (dose: 25.0 mg/kg/injection, schedule: Q01DX009 (ip), vehicle: Klucel (hydroxypropylcellulose) (HPC)) it was 95 % of control; in assay [1] (dose: 50.0 mg/kg/injection, schedule: Q01DX009 (ip), vehicle: Klucel (hydroxypropylcellulose) (HPC)), 104 % of control; in assay [1] (dose: 100.0 mg/kg/injection, schedule: Q01DX009 (ip), vehicle: Klucel (hydroxypropylcellulose) (HPC)), 95 % of control; in assay [1] (dose: 100.0 mg/kg/injection, schedule: Q04DX003 (ip), vehicle: Klucel (hydroxypropylcellulose) (HPC)) it was 109 % of control; in assay [1] (dose: 200.0 mg/kg/injection, schedule: Q04DX003 (ip), vehicle: Klucel (hydroxypropylcellulose) (HPC)), 90 % of control. For the same compound, in assay [1] (dose: 400.0 mg/kg/injection, schedule: Q04DX003 (ip), vehicle: Klucel (hydroxypropylcellulose) (HPC)), the T/C was 90 % of control.
On to `CCOC(=O)NC1=C(N2CC2)C(=O)C(NC(=O)OCC)=C(N2CC2)C1=O`, for which the T/C in assay [1] (dose: 0.78 mg/kg/injection, schedule: Q01DX009 (ip), vehicle: saline) was 199 % of control and 211 % of control and 212 % of control; in assay [1] (dose: 1.56 mg/kg/injection, schedule: Q01DX009 (ip), vehicle: saline) it was 235 % of control and 238 % of control and 212 % of control; in assay [1] (dose: 3.12 mg/kg/injection, schedule: Q01DX009 (ip), vehicle: saline), 100 % of control.
